Measured values from patent US9560876B2, “Acylamino acid compounds and food preparations containing same” (Nestec S.A., priority 2008, dated 2017).

Target: human TRPA1 (Homo sapiens, UniProt O75762)
Assay: Intracellular calcium [Ca2+]i flux in HEK 293 cells stably expressing TRPA1 (FLEXstation, Fura-2/AM)
Format: cell-based
Settings: saturating concentration
Method: Cloning and Expression of Human TRPV1 and TRPA1 Receptors in HEK 293 Cells: Cloning and expression of these receptors was performed following previously published protocols. Briefly, cloned human TRPV1 cDNA was obtained from RZPD (Germany) and hTRPA1 cDNA from OriGene (Rockville, Md.). Genes were subcloned into pcDNA5/FRT (Invitrogen, Carlsbad, Calif.) to generate stable cell lines using the Flp-In system (Invitrogen) after sequencing verification.
Measurement of Intracellular Calcium Levels [Ca2+]i and Membrane Potential Variation in HEK 293 Cells Using a Fluorescent Plate Reader: Cell lines stably expressing TRP channels were seeded into 96-well plates previously coated with poly-D-lysine. […] [Ca2+]i fluxes from a homogeneous cell population (approximately 100000 cells) were measured as changes in fluorescence intensity when stimulated with agonists using a FLEXstation (Molecular Devices). […]
Data Analysis: Responses of molecules in HEK 293 cells were expressed as a percentage of maximum responses evoked by 150 μM cinnamaldehyde for TRPA1 and 1 μM capsaicin for TRPV1 (these concentrations were assessed independently to be saturating under these conditions). For all experiments, calcium fluxes were measured as changes in fluorescence intensity, before and after the addition of agonists. […] Data obtained from this study were expressed as mean SEM. […]

Sequence of human TRPA1 (O75762 whole entry): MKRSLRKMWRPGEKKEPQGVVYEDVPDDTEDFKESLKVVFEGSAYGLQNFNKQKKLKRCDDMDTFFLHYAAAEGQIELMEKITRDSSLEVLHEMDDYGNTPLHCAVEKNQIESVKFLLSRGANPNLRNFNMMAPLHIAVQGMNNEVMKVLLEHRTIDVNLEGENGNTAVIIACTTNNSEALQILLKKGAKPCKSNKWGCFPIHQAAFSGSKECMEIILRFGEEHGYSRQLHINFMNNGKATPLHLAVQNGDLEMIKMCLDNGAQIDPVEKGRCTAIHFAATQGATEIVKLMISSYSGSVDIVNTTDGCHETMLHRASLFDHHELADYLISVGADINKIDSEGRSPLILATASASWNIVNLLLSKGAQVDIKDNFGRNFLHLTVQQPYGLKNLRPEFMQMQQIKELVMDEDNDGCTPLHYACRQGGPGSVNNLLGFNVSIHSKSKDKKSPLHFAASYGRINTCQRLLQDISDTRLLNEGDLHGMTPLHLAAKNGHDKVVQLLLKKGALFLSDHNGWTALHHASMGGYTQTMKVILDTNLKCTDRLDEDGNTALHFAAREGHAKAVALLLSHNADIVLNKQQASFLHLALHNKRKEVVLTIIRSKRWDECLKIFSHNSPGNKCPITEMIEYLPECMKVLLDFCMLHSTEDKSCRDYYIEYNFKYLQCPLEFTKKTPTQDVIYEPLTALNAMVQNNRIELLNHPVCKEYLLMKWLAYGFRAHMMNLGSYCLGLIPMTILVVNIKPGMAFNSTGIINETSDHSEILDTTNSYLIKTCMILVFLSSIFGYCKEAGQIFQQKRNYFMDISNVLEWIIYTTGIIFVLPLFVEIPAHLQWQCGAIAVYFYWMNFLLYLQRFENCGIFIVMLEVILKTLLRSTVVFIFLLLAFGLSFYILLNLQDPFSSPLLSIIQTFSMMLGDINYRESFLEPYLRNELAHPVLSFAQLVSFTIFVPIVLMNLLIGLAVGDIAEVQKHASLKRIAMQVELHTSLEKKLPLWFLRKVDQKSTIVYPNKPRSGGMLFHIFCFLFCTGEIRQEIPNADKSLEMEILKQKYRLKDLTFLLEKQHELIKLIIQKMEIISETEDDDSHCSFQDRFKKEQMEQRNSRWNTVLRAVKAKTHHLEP

CCC=CCC=CCC=CCCCCCCCC(=O)NC(C)C(=O)O (centres unmarked) [K]
selectivity of activation, TRPA1 versus TRPV1 (comparison of TRPA1 and TRPV1 activation in HEK 293 cells): purely activating TRPA1 | maximum activation on TRPA1 (responses expressed as percentage of maximum response evoked by 150 μM cinnamaldehyde, FIG. 1): strong stimulating effect
